Here are results for eleven compounds from paper PMC7284125, “Identification of annotated bioactive molecules that impair motility of the blood fluke Schistosoma mansoni” (International Journal for Parasitology: Drugs and Drug …, 2020).

What all share (assay type): cell-based, Schistosoma mansoni
Data set [1] has as its system S. mansoni schistosomulae. As to the kind of experiment: Motility assay on schistosomulae (pixel displacement, relative to DMSO control). To be noted: for activity at 1 µM: Schistosoma mansoni, read-out: Fractional motility. As for the experimental part:
Puerto Rican strain Biomphalaria glabrata snails infected with S. mansoni were kindly provided by Dr. Fred Lewis (Biomedical Research Institute and BEI Resources, MD, USA). Schistosomulae were obtained by exposing six to eight weeks-old snails to continuous light for 2 h at 32 °C. The resulting suspension of cercaria was then mechanically transformed as described ([Lewis, 2001]) and cultured in Opti-MEM/antibiotics (Thermo Fisher Scientific, Waltham, MA) containing 100 μg/mL streptomycin and 100 units/ml penicillin supplemented with 5% fetal bovine serum (FBS; Thermo Fisher). Parasite cultures were incubated at 37 °C with 5% CO2 for at least 10 days with no apparent loss of viability. At this point, animals with internal dark granulations and with no observable body contraction/relaxation cycles were considered dead.
(§1) Schistosomulae (200/well) and adult parasites (unpaired worms) were maintained in 300 μL OPTI-MEM with 5% dialyzed FBS (without antibiotics) and exposed to compounds at 1 and 10 μM for 24 h. A kinetic assay consisting of 1, 3, 6 and 12 h incubation times was performed on selected hits by motility monitoring using a stereo microscope (SMZ1270, Nikon) for adults and an inverted microscope for schistosomulae (eclipse TE2000-U, Nikon) connected to a monochrome camera (DS-Qi2, Nikon) for image acquisition. Images were recorded at a rate of 10 frames/s for a period of 1 min and videos were analyzed using ImageJ software (version 1.41, NIH, USA). Parasite movement quantification and data analysis protocols were applied using the pixel displacement method ([Patocka et al., 2014]; [Rashid et al., 2015]) and compared to control parasites treated with DMSO. Parasites were then washed several times in Opti-MEM, 5% FBS and incubated up to an additional three days (schistosomulae) or five days (adult worms) at 37 °C, 5% CO2 and motility was recorded as described above.

The test system of the next data set is S. mansoni adult worms. As to the kind of experiment: Motility assay on adult parasites (pixel displacement, relative to DMSO control). To be noted: 10 μM; for Fractional motility: secondary screen; for motility phenotype in words: adults, long-term after washout. The method, then:
Adult parasites were collected from 40 day-old female CD1 mice (Charles River) previously inoculated by the tail infection method ([Lewis, 2001]). Six weeks post-infection, mice were sacrificed, and adult worms extracted after perfusion of in the hepatic portal vein and mesenteric venules ([Lewis, 2001]). Animal procedures were reviewed and approved by the Facility Animal Care Committee of McGill University (Protocol No. 3346) and were conducted in accordance with the guidelines of the Canadian Council on Animal Care.
as §1

For data set [2], the system named is S. mansoni schistosomulae. The data set can be described thus: Phenotypic primary screen assay on schistosomulae (phenotype; viability by methylene blue dye exclusion). As to conditions: for Viability (%) / Phenotype: three-day-old schistosomulae, 10 μM, 24 h; for Viability (%): calculated 5 days post compound exposure; for Phenotype: estimated 5 days post compound exposure. As for the experimental part:
Puerto Rican strain Biomphalaria glabrata snails infected with S. mansoni were kindly provided by Dr. Fred Lewis (Biomedical Research Institute and BEI Resources, MD, USA). Schistosomulae were obtained by exposing six to eight weeks-old snails to continuous light for 2 h at 32 °C. […] At this point, animals with internal dark granulations and with no observable body contraction/relaxation cycles were considered dead.
Schistosomulae were monitored under a stereo microscope (SMZ1270, Nikon). Phenotypic observations were made by analyzing schistosomulae, 24 h after drug addition to assess any immediate effect and five days post-compound exposure to observe long-term impacts on both the movement and overall body shape in comparison to control animals exposed to DMSO only.

The mark [3] stands for this setting: schistosomulae, secondary screen, 24h exposure, read at D1, 1 µM.
[4] abbreviates: schistosomulae, secondary screen, 24h exposure, read at D1, 10 µM.
[5] abbreviates: schistosomulae, 1h exposure, read at D1, 10 µM.
Where [6] appears, read: schistosomulae, 1h exposure, read at D5, 10 µM.
[7] abbreviates: schistosomulae, 3h exposure, read at D1, 10 µM.
Where [8] appears, read: schistosomulae, 3h exposure, read at D5, 10 µM.
The mark [9] stands for this setting: schistosomulae, 6h exposure, read at D1, 10 µM.
Where [10] appears, read: schistosomulae, 6h exposure, read at D5, 10 µM.
[11] abbreviates: schistosomulae, secondary screen, 24h exposure, read at D5, 1 µM.
Setting [12] is: schistosomulae, secondary screen, 24h exposure, read at D5, 10 µM.
Setting [13] is: 120 h, schistosomulae, secondary screen, 24h exposure, read at D5, 1 µM.

Read-outs that look alike come from different tables or passages of the source.

On to `C#CC[C@H](c1nc2cc(Cl)ccc2c(=O)n1Nc1ccccc1)N(CCCN)C(=O)c1cccc(Cl)c1F` [ARQ 621], for which the Fractional motility is 2.11 in data set [1] (setting [3]); 2.52 in data set [1] (setting [4]); -0.48 with S. mansoni adult worms (D1, Female adult worms); 0.41 in the data set on S. mansoni adult worms (D1, Male adult worms); -0.43 in the data set with S. mansoni adult worms (D5, Female adult worms); 0.0454 with S. mansoni adult worms (D5, Male adult worms). In addition, the “Viability (%)” value in data set [2] is given as 13%. Also, the Phenotype entry in data set [2] was “dark, granulated”.

Regarding `COc1cc(N2CCC(N)CC2)ccc1Nc1ncc(Cl)c(-c2c[nH]c3ccccc23)n1` [AZD3463], the Fractional motility in data set [1] (setting [5]) is 1.70; in data set [1] (setting [6]), -0.84; in data set [1] (setting [7]), 5.60; in data set [1] (setting [8]) it was -0.68; in data set [1] (setting [9]), 2.17; in data set [1] (setting [10]), -0.70. Moreover, the Fractional motility in data set [1] (setting [3]) was 0.62; in data set [1] (setting [4]), 1.68; in data set [1] (setting [11]), 0.15; in data set [1] (setting [12]), -0.81; with S. mansoni adult worms (D1, Female adult worms), -0.12; in the data set on S. mansoni adult worms (D1, Male adult worms), 0.58. For the same compound, the Fractional motility in the data set on S. mansoni adult worms (D5, Female adult worms) is recorded as -0.93; in the data set with S. mansoni adult worms (D5, Male adult worms), -0.57. Also, the “motility phenotype in words” value in the data set with S. mansoni adult worms is reported as “Significant hypomotility”. Besides, the “Viability (%)” value in data set [2] is 42,5%. In addition, the Phenotype result in data set [2] was “dark, granulated”.

Take `CCCCc1oc2ccccc2c1C(=O)c1cc(I)c(OCCN(CC)CC)c(I)c1` [Amiodarone]: the activity at 1 µM in data set [1] (setting [13]) is 78%; in data set [1] (setting [3]), -11%. Moreover, the Fractional motility is on record as -0.80 in data set [1] (setting [4]); -0.98 in data set [1] (setting [12]); -0.67 in the data set with S. mansoni adult worms (D1, Female adult worms); -0.41 with S. mansoni adult worms (D1, Male adult worms); -0.58 in the data set on S. mansoni adult worms (D5, Female adult worms); -0.38 in the data set on S. mansoni adult worms (D5, Male adult worms). The Phenotype entry in data set [2] is on record as “big, granulated”.

`O=C(NC(NC(=S)Nc1ccc(F)c([N+](=O)[O-])c1)C(Cl)(Cl)Cl)C(c1ccccc1)c1ccccc1` (stereo not drawn) [CGK 733]: the Fractional motility in data set [1] (setting [3]) was 0.41; in data set [1] (setting [4]) it was -0.71; in data set [1] (setting [11]) it was -0.07; in data set [1] (setting [12]), -0.90; in the data set on S. mansoni adult worms (D1, Female adult worms), -0.10; in the data set with S. mansoni adult worms (D1, Male adult worms) it was 0.12. Moreover, the Fractional motility with S. mansoni adult worms (D5, Female adult worms) is on record as -0.83; in the data set on S. mansoni adult worms (D5, Male adult worms), -0.19. Further, in data set [2], the “Viability (%)” value is 62,5%. The Phenotype result in data set [2] is “dark, granulated, some big”.

Regarding `O=c1[nH]c2ccc(Cl)cc2c(N[C@@H]2CN3CCC2CC3)c1-c1nc2ccccc2[nH]1` [CHIR-124], the Fractional motility in data set [1] (Selleckchem customized library secondary screen, 24h, D1, 1 µM) is 6.60; in data set [1] (Selleckchem customized library secondary screen, 24h, D1, 10 µM), 100.65; in the data set on S. mansoni adult worms (D1, Female adult worms), 4.53; in the data set on S. mansoni adult worms (D1, Male adult worms), 10.48; in the data set on S. mansoni adult worms (D5, Female adult worms), -0.48; with S. mansoni adult worms (D5, Male adult worms), -0.25. The “Viability (%)” value in data set [2] is given as 77%. Besides, the Phenotype entry in data set [2] was “big”.

As for `Cc1nc(C#Cc2ccnc(Cl)c2)c(C)n1-c1ccc(OC(F)(F)F)cc1` [CTEP], the Fractional motility is reported as 0.25 in data set [1] (setting [3]); 1.01 in data set [1] (setting [4]); 0.27 in data set [1] (setting [11]); 0.27 in data set [1] (setting [12]); -0.44 in the data set on S. mansoni adult worms (D1, Female adult worms); -0.49 with S. mansoni adult worms (D1, Male adult worms). Further, the Fractional motility in the data set with S. mansoni adult worms (D5, Female adult worms) is -0.35; with S. mansoni adult worms (D5, Male adult worms), -0.57. The “Viability (%)” value in data set [2] is recorded as 99%. In addition, in data set [2], the Phenotype entry is given as “big, granulated, blebbing”.

On to `c1ccc(CNc2nc(NCc3ccccc3)c3ccccc3n2)cc1` [DBeQ], for which the Fractional motility in data set [1] (setting [5]) is -0.96; in data set [1] (setting [6]), -0.93; in data set [1] (setting [7]), 1.19; in data set [1] (setting [8]), -0.88; in data set [1] (setting [9]) it was 0.41; in data set [1] (setting [10]) it was -0.13. Moreover, the Fractional motility in data set [1] (setting [3]) is given as 7.69; in data set [1] (setting [4]), 6.82; in data set [1] (setting [11]), -0.29; in data set [1] (setting [12]) it was 4.98; with S. mansoni adult worms (D1, Female adult worms), 0.29; with S. mansoni adult worms (D1, Male adult worms), 0.29. Also, the Fractional motility is reported as -0.91 in the data set on S. mansoni adult worms (D5, Female adult worms) and -0.65 in the data set on S. mansoni adult worms (D5, Male adult worms). Moreover, the “motility phenotype in words” value in the data set on S. mansoni adult worms is “severely paralyzed adults”. Moreover, in data set [2], the “Viability (%)” value is reported as 15,5%. For the same compound, the Phenotype result in data set [2] is “dark, granulated”.

Regarding `CCn1c2ccccc2c2cc(Nc3ccnc(NCCCN4CCOCC4)n3)ccc21` [EHop-016], the Fractional motility was 3.03 in data set [1] (setting [3]); 0.07 in data set [1] (setting [4]); 0.99 in data set [1] (setting [11]); -0.94 in data set [1] (setting [12]); 0.25 with S. mansoni adult worms (D1, Female adult worms); 0.85 in the data set on S. mansoni adult worms (D1, Male adult worms). Besides, the Fractional motility in the data set on S. mansoni adult worms (D5, Female adult worms) is -0.62; with S. mansoni adult worms (D5, Male adult worms) it was -0.29. The “Viability (%)” value in data set [2] is given as 80%. Also, the Phenotype entry in data set [2] is reported as “big, dark”.

On to `CCOC(=O)CCNc1cc(N2CCc3ccccc3CC2)nc(-c2ccccn2)n1` [GSK J4], for which the Fractional motility in data set [1] (setting [5]) was 0.43; in data set [1] (setting [6]), 0.28; in data set [1] (setting [7]), -0.55; in data set [1] (setting [8]) it was -0.56; in data set [1] (setting [9]), -0.78; in data set [1] (setting [10]), -0.70. Besides, the Fractional motility in data set [1] (setting [3]) is 0.46; in data set [1] (setting [4]), -0.85; in data set [1] (setting [11]), 0.88; in data set [1] (setting [12]), -1.00; in the data set with S. mansoni adult worms (D1, Female adult worms) it was -0.0455; in the data set on S. mansoni adult worms (D1, Male adult worms), -0.11. The Fractional motility in the data set with S. mansoni adult worms (D5, Female adult worms) is -0.64; in the data set with S. mansoni adult worms (D5, Male adult worms) it was -0.63. Besides, the “motility phenotype in words” value in the data set on S. mansoni adult worms is “Significant hypomotility”. For the same compound, the “Viability (%)” value in data set [2] is recorded as 5%. Also, the Phenotype result in data set [2] is given as “big, dark, granulated”.

Regarding `CCc1ccc(OCc2ccccc2C(=O)Nc2ccc3nc(C)cc(N)c3c2)cc1` [JTC-801], the Fractional motility in data set [1] (setting [5]) was -0.51; in data set [1] (setting [7]), -0.95; in data set [1] (setting [8]), -0.09; in data set [1] (setting [9]) it was -0.74; in data set [1] (setting [10]), -0.71; in data set [1] (setting [3]), 3.71. Moreover, the Fractional motility in data set [1] (setting [4]) was -1.00; in data set [1] (setting [11]), 1.04; in data set [1] (setting [12]) it was -0.99; with S. mansoni adult worms (D1, Female adult worms), 1.22; with S. mansoni adult worms (D1, Male adult worms), 4.15; with S. mansoni adult worms (D5, Male adult worms) it was -0.56. In addition, the “effect on viability of schistosomulae in words” value in data set [2] (24 h incubation, five days) is listed as “lethal”. Further, the “Viability (%)” value in data set [2] is 0%. In addition, the Phenotype entry in data set [2] is given as “big, granulated”.

Regarding `O=C(C1CCCCC1)N1CC(=O)N2CCc3ccccc3C2C1` (stereo not drawn) [PZQ, praziquantel], the activity at 1 µM in data set [1] (setting [13]) was -29%; in data set [1] (setting [3]), -30%. Also, the Fractional motility is on record as -0.47 in data set [1] (setting [4]); -0.47 in data set [1] (setting [12]); -0.96 with S. mansoni adult worms (D1, Female adult worms); -0.98 in the data set on S. mansoni adult worms (D1, Male adult worms); -0.98 with S. mansoni adult worms (D5, Female adult worms); -0.99 in the data set with S. mansoni adult worms (D5, Male adult worms).
